Source: ChEMBL document CHEMBL5029185, “Discovery of Novel Polycyclic Heterocyclic Derivatives from Evodiamine for the Potential Treatment of Triple-Negative Breast Cancer” (J Med Chem, 2021)
pIC50: −log10 of the molar value. Calls of active or inactive are those of the source. No cut-off for these calls is given here.

Assays:
MDA-MB-231 [1] = assay: Induction cell cycle arrest in human MDA-MB-231 cells assessed as accumulation at G1 phase at 0.4 uM measured after 48 hrs by PI staining based flow cytometry (reference value: 53.7%); format: functional
MCF-10A = assay: cells; format: ADME, cell-based; details: Homo sapiens, 72 h
Description: Antiproliferative activity against human MCF-10A cells assessed as inhibition rate incubated for 72 hrs by MTT assay

MDA-MB-231 [2] = assay: Induction of apoptosis in human MDA-MB-231 cells assessed as decrease in Bcl-2 expression at 0.1 to 0.4 uM measured after 48 hrs by Western blot analysis; format: functional, cell-based; details: dose 0.1-0.4 µM
MDA-MB-231 [3] = assay: Antiproliferative activity against human MDA-MB-231 cells transfected with siRNA-Top1 assessed as cell viability by MTT assay; format: functional, cell-based
MDA-MB-231 [4] = assay: Induction of apoptosis in human MDA-MB-231 cells assessed as increase in cleaved caspase-3 expression at 0.1 to 0.4 uM measured after 48 hrs by Western blot analysis; format: functional, cell-based; details: dose 0.1-0.4 µM
MDA-MB-231 [5] = assay: Induction cell cycle arrest in human MDA-MB-231 cells assessed as accumulation at S phase at 0.2 uM measured after 48 hrs by PI staining based flow cytometry (reference value: 36%); format: functional
[6] = biological target: DNA topoisomerase 2-alpha (Homo sapiens) (UniProt P11388); assay: Inhibition of topoisomerase 2 (unknown origin) assessed as relaxation of supercoiled kDNA at 100 to 500 uM incubated for 30 mins by agarose gel electrophoresis; details: dose 100-500 µM
Sequence of DNA topoisomerase 2-alpha (Homo sapiens) (P11388 whole entry): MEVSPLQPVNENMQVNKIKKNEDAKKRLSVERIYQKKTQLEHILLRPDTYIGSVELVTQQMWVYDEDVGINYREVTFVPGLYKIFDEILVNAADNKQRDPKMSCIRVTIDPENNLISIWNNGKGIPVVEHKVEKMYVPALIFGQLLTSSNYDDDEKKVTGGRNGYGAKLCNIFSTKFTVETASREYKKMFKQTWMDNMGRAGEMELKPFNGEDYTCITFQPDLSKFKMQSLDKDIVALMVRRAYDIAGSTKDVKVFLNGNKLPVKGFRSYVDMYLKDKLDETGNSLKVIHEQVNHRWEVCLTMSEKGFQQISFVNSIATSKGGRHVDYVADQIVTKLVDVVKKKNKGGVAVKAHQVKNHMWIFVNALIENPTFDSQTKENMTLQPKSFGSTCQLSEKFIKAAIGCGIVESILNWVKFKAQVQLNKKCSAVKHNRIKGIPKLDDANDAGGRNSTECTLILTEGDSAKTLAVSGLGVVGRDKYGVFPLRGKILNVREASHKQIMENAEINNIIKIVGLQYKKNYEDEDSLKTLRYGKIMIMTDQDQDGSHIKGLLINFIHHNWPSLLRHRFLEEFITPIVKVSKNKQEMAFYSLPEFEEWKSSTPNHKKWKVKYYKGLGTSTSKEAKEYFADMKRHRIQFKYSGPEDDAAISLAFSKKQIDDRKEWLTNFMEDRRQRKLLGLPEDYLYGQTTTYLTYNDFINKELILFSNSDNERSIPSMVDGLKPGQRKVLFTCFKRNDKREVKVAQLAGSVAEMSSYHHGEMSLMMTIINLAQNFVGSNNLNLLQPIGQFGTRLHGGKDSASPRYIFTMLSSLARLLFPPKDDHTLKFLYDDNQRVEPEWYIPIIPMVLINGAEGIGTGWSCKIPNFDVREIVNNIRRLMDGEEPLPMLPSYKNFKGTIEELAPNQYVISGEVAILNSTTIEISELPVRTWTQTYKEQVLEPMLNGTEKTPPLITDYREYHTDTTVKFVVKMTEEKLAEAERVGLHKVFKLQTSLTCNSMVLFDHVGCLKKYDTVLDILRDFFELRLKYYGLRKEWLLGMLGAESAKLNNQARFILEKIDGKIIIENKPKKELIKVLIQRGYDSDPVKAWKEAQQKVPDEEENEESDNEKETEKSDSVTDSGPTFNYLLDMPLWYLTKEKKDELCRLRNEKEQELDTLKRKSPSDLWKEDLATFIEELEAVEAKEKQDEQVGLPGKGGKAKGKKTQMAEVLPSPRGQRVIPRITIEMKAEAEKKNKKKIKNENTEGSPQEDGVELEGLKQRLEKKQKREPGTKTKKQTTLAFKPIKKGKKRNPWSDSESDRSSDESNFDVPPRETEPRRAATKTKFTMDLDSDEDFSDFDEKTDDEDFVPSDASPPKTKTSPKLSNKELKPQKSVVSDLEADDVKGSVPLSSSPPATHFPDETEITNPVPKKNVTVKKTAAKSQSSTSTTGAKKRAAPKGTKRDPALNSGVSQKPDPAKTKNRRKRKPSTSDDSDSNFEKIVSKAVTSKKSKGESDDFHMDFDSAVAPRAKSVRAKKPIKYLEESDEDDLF

MDA-MB-231 [7] = assay: Antiproliferative activity against human MDA-MB-231 cells assessed as inhibition rate at 100 uM incubated for 72 hrs by MTT assay; format: functional
MDA-MB-231 [8] = assay: Induction of ROS generation in human MDA-MB-231 cells transfected with siRNA-Top1 by fluorescent dye […] based flow cytometry; format: functional, cell-based
MDA-MB-231 [9] = assay: Induction cell cycle arrest in human MDA-MB-231 cells assessed as accumulation at S phase at 0.4 uM measured after 48 hrs by PI staining based flow cytometry (reference value: 36%); format: functional
MDA-MB-435 = assay: Antiproliferative activity against human MDA-MB-435 cells assessed as inhibition rate incubated for 72 hrs by MTT assay; format: functional, cell-based; details: MDA-MB-435, 72 h
MDA-MB-231 [10] = assay: Induction cell cycle arrest in human MDA-MB-231 cells assessed as accumulation at G2 phase at 0.2 uM measured after 48 hrs by PI staining based flow cytometry (reference value: 10.2%); format: functional
[11] = Toxicity in PDTX SCID mouse model at 5 to 20 mg/kg measured upto 7 days; format: organism-based; details: in vivo, 168 h, dose 5-20 mg/kg, time <=7 day
Breast carcinoma cell [12] = assay: Antitumour activity against human TNBC breast carcinoma cell tissue xenografted PDTX SCID mouse model assessed as reduction in Ki67 expression level at 5 to 20 mg/kg treated for 7 days by immunohistochemical analysis; format: functional, organism-based; details: dose 5-20 mg/kg, time 7.0 day
MDA-MB-231 [13] = assay: Induction cell cycle arrest in human MDA-MB-231 cells assessed as increase in CDK2 expression at 0.4 uM measured after 48 hrs by Western blot analysis; format: functional, cell-based
MDA-MB-231 [14] = assay: Induction cell cycle arrest in human MDA-MB-231 cells assessed as accumulation at G1 phase at 0.1 uM measured after 48 hrs by PI staining based flow cytometry (reference value: 53.7%); format: functional
MDA-MB-231 [15] = assay: Inhibition of PI3K phosphorylation in human MDA-MB-231 cells at 0.4 uM measured after 48 hrs by Western blot analysis; format: cell-based
[16] = biological target: T1, DNA topoisomerase 1 (Homo sapiens) (UniProt P11387); assay: Inhibition of topoisomerase 1 (unknown origin) assessed as relaxation of supercoiled plasmid pBR322 DNA at 50 uM incubated for 15 mins by agarose gel electrophoresis
T1 sequence (whole entry): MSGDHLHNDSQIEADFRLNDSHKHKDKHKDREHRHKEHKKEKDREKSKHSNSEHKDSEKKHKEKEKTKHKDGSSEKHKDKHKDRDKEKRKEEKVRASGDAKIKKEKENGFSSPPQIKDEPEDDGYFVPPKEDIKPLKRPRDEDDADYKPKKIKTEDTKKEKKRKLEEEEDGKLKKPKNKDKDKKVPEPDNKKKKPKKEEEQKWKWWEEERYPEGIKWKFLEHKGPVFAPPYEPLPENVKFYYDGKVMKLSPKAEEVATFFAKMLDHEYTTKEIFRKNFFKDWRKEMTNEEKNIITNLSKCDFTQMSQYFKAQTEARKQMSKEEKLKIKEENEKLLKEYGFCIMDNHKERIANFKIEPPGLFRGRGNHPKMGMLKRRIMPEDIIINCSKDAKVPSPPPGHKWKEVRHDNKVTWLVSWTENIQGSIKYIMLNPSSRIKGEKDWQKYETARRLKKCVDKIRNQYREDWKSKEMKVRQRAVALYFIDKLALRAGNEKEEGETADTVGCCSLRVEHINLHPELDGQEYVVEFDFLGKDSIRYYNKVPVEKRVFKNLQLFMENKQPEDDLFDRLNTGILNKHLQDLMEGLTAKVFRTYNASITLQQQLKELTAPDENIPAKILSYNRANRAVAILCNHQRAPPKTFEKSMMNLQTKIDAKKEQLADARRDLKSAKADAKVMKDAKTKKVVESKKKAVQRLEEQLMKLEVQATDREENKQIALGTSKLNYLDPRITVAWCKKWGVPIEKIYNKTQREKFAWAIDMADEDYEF

MDA-MB-231 [17] = assay: Induction cell cycle arrest in human MDA-MB-231 cells assessed as accumulation at G1 phase at 0.2 uM measured after 48 hrs by PI staining based flow cytometry (reference value: 53.7%); format: functional
MDA-MB-231 [18] = assay: Induction cell cycle arrest in human MDA-MB-231 cells assessed as accumulation at G2 phase at 0.4 uM measured after 48 hrs by PI staining based flow cytometry (reference value: 10.2%); format: functional
[19] = biological target: T1, DNA topoisomerase 1 (Homo sapiens); assay: Induction of topoisomerase 1-DNA cleavable complex in human MDA-MB-231 cells assessed as increase in cleavable complex by measuring SDS-K+ precipitable complex at 15 uM measured up to 15 hrs by liquid scintillation counting analysis; format: cell-based; details: time hrs <=15
Breast carcinoma cell [20] = assay: Antitumour activity against human TNBC breast carcinoma cell tissue xenografted PDTX SCID mouse model assessed as reduction in cancer cell density at 5 to 20 mg/kg treated for 7 days; format: functional, organism-based; details: dose 5-20 mg/kg, time 7.0 day
A549 = assay: Antiproliferative activity against human A549 cells assessed as inhibition rate incubated for 72 hrs by MTT assay; format: functional, cell-based; details: A549, 72 h
MDA-MB-231 [21] = assay: Induction cell cycle arrest in human MDA-MB-231 cells assessed as accumulation at S phase at 0.1 uM measured after 48 hrs by PI staining based flow cytometry (reference value: 36%); format: functional
Breast carcinoma cell [22] = assay: Antitumour activity against human TNBC breast carcinoma cell tissue xenografted PDTX SCID mouse model assessed as tumor cell necrosis […] at 5 to 20 mg/kg treated for 7 days; format: functional, organism-based; details: dose 5-20 mg/kg, time 7.0 day
MDA-MB-231 [23] = assay: Induction cell cycle arrest in human MDA-MB-231 cells assessed as accumulation at G2 phase at 0.1 uM measured after 48 hrs by PI staining based flow cytometry (reference value: 10.2%); format: functional

pIC50 (MDA-MB-231 [3]): 5.01
inhibition [6]: inactive
pIC50 (MDA-MB-435): 6.38
inhibition [16]: Active
Activity [19]: Active
pIC50 (A549): 5.28
Compound: O=C1c2cc(Cl)ccc2OC2c3oc4ccc(O)cc4c3CCN12 (stereo unspecified)
Activity (MDA-MB-231 [1]): 70.2%
pIC50 (MCF-10A): 5.17
Activity (MDA-MB-231 [2]): Active
Activity (MDA-MB-231 [4]): Active
Activity (MDA-MB-231 [5]): 22.4%
inhibition at 100 µM (MDA-MB-231 [7]): 95.8%
Activity (MDA-MB-231 [8]): Active
Activity (MDA-MB-231 [9]): 22.9%
Activity (MDA-MB-231 [10]): 5.3%
Activity [11]: Non-Toxic
Activity (Breast carcinoma cell [12]): Active
Activity (MDA-MB-231 [13]): Active
Activity (MDA-MB-231 [14]): 68.1%
inhibition (MDA-MB-231 [15]): Active
Activity (MDA-MB-231 [17]): 72.3%
Activity (MDA-MB-231 [18]): 6.9%
Activity (Breast carcinoma cell [20]): Active
Activity (MDA-MB-231 [21]): 24.7%
Activity (Breast carcinoma cell [22]): Active
Activity (MDA-MB-231 [23]): 7.2%
